Legend:
[1] = biological target: T1, carboxypeptidase B (Sus scrofa, UniProt P09955); experiment: Inhibition of the action of carboxypeptidase B; assay type: biochemical; conditions: carboxypeptidase B purified from swine pancreas, 37°C, 30 minutes, pH 8.0; read-out: CP-B inhibition IC50 (converted)
T1 construct: carboxypeptidase B purified from swine pancreas; purchased C; F. Boehringer & Soehne GmbH, Mannheim; host or cells: swine pancreas
T1 sequence (P09955 111-416): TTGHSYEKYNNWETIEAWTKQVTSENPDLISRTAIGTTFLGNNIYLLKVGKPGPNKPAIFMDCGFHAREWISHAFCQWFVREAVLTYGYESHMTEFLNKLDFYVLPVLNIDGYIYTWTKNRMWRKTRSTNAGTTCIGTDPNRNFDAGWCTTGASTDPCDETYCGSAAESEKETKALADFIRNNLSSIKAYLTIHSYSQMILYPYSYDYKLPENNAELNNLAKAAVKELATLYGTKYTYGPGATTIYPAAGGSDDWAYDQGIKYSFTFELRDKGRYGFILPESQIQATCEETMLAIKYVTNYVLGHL
Protocol: The inhibition of the action of carboxypeptidase B was determined by an improved version of the method for determination of the activity of angiotensin converting enzyme described in M. Hayakari et al., Analytical Biochemistry, 84, 361 - 369 (1978). The method proceeds as follows: A mixture of 0.05 mℓ of 0.05 M fibril-L-lysine (prepared by Tanpakushitsu Kenkyu Shoreikai) with 0.25 mℓ of 0.05 M Tris-HCℓ buffer solution (pH 8.0) and 0.15 mℓ of a solution containing a test compound was heated at 37°C for 3 minutes. To the heated solution, 0.05 mℓ of an aqueous solution containing 1 ug/mℓ of carboxypeptidase B purified from swine pancreas (product of C. F. Boehringer G Sohne GmbH, Mannheim) and 1 mg/mℓ of bovine albumin was added, and the mixture was subjected to reaction at 37°C for 30 minutes. The reaction was quenched by adding 0.03 mℓ of 1 N caustic soda. Fifteen minutes later, 2 mℓ of 0.05 M sodium phosphate buffer solution (pH 7.2) was added to the reaction mixture, and color reaction was performed by addition of 2 mℓ of 1% cyanuric chloride in methyl cellosolve. The mixture was left at room temperature for 15 minutes and the absorbance (a) at 382 nm was measured. The absorbance (b) of a control containing no test compound was also measured by repeating the same procedure. Blank tests were also conducted to determine the corresponding absorbances (a') and (b').
In each blank teat, the color reaction was performed by adding the enzyme solution after caustic soda so that no enzymatic reaction would take place. The percent inhibition of the action of carboxypeptidase B was calculated by the formula: [formula]

[2] = biological target: T2, carboxypeptidase A (Bos taurus, UniProt P00730); experiment: Inhibition of the action of carboxypeptidase A; assay type: biochemical; conditions: carboxypeptidase A purified from bovine pancreas, 37°C, 30 minutes, pH 7.5; read-out: CP-A inhibition IC50 (converted)
T2 construct: carboxypeptidase A purified from bovine pancreas; purchased Sigma Chemical Co; host or cells: bovine pancreas
T2 sequence (P00730 111-419): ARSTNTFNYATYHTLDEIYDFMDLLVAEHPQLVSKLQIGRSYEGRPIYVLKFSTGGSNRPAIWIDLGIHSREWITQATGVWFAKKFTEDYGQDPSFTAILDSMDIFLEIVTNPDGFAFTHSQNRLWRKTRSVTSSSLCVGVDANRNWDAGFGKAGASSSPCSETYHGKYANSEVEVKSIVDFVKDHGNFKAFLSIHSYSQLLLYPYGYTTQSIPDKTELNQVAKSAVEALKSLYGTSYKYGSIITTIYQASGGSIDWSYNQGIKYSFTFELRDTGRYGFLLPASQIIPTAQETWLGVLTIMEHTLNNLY
Protocol: (2) Inhibition of the action of carboxypeptidase A The inhibition of the action of carboxypeptidase A was determined by the method described in T. Tanaka et al., The Journal of Antibiotics, 37, 682 - 684 (1984). The method proceeds as follows: A mixture of 0.05 mℓ of 0.01 M fibril-L-phenylalanine (product of Sigma Chemical Co.) with 0.25 mℓ of 0.05 M Tris-HCℓ buffer solution (pH 7.5) containing 0.9 M NaCℓ. and 0.15 mℓ of a solution containing a teat compound was heated at 37°C for 3 minutes. To the heated solution, 0.05 mℓ of a diluted aqueous solution of carboxypeptidase A purified from bovine pancreas (product of Sigma Chemical Co.) which also contained 1 mg/mℓ of purified bovine albumin was added and the mixture was enbjected to reaction at 37°C for 30 minutes. The reaction was quenched by adding 0.03 mℓ of 1 M caustic soda. Fifteen minutes later, 2 mℓ of 0.06 M sodium phosphate buffer solution (pH 7.2) was added to the reaction mixture, and color reaction was performed by addition of 2 mℓ of 1% cyanuric chloride in methyl cellosolve. The mixture was left at room temperature for 15 minutes and the absorbance (a) at 382 nm was measured. The absorbance (b) of a control containing no test compound was also measured by repeating the same procedure. Blank tests were also conducted to determine the corresponding absorbances (a') and (b'). In each blank test, the color reaction was performed by adding the enzyme solution after caustic soda so that no enzymatic reaction would take place. The percent inhibition of the action of carboxypeptidase A was calculated by the formula: [formula]

[3] = biological target: T3, angiotensin converting enzyme (Bos taurus, UniProt P12820); experiment: Inhibition of the action of angiotensin converting enzyme; assay type: biochemical; conditions: enzyme partially purified from a bovine lung, 37°C, 30 minutes; read-out: IC50 (50% inhibition concentration) (converted)
T3 construct: angiotensin converting enzyme partially purified from a bovine lung; from tissue; host or cells: bovine lung
T3 sequence (P12820 29-1306): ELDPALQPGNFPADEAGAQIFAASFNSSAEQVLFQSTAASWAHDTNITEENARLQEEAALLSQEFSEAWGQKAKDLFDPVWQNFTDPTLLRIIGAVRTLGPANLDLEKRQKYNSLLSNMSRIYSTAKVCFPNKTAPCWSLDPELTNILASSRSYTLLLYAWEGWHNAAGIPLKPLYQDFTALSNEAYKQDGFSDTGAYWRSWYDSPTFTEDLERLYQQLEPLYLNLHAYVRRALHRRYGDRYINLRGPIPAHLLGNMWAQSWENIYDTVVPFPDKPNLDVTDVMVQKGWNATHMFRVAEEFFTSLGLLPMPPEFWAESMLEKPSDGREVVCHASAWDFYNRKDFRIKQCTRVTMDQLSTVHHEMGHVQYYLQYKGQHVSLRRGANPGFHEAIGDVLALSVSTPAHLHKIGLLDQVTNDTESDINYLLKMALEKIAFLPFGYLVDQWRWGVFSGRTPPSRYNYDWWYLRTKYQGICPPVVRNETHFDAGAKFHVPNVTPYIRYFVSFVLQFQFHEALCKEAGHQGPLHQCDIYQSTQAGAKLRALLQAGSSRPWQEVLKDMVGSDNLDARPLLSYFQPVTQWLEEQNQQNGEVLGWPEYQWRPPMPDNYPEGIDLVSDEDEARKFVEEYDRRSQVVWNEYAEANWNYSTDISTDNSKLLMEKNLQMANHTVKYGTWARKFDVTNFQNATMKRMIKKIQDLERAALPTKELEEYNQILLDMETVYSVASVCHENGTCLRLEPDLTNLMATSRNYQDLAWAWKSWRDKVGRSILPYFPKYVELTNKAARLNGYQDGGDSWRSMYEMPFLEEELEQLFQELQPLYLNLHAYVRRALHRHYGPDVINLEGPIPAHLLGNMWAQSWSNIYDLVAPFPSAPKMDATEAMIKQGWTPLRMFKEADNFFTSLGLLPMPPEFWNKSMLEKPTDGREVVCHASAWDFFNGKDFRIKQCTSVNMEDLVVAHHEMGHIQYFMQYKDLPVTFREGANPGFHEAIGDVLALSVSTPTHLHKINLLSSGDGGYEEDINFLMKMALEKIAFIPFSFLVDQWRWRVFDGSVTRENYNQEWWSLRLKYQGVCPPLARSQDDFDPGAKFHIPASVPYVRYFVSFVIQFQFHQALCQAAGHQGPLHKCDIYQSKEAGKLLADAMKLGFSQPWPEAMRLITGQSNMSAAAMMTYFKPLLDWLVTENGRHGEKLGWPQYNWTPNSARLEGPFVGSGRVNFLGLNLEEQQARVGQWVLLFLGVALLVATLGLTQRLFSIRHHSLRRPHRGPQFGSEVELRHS
Protocol: The inhibition of the action of angiotensin converting enzyme was determined by an inproved version of the method for determination of the activity of angiotensin converting enzyme described in M. Hayakari et al., Analytical Biochemistry, 84, 361 - 369 (1978). The method proceeds as follows: Substrate fibril-L-histidyl-L-leucine was dissolved at a concentration of 5 mg/mt in Tris-HCℓ buffer solution (0.5 M, pH 8.0) containing 0.3 M NaCℓ. A mixture of this solution (0.05 mℓ) and 0.40 mℓ of a solution containing a test compound was heated at 37°C for 3 minutes. To the heated solution, 0.05 ml of a solution containing angiotensin converting enzyme partially purified from a bovine lung was added, and the mixture was subjected to reaction at 37°C for 30 minutes. The reaction was quenched by adding 0.03 mℓ of 1 N caustic soda. […] The mixture was left at room temperature for 15 minutes and the absorbance (a) at 382 nm was measured. The absorbance (b) of a control containing no test compound was also measured by repeating the same procedure. Blank tests were also conducted to determine the corresponding absorbances (a') and (b'). […] The percent inhibition of the action of angiotensin converting enzyme was calculated by the formula: [formula]

[4] = system: rats; experiment: Acute toxicity test by intraperitoneal administration; assay type: in vivo
From the text: Each of the compounds in accordance with the present invention has low toxicity and can safely be used as a medicine. The results of an acute toxicity test conducted by intraperitoneal administration of rats with compound Nos. la to 5a are summarized in Table 5.

[5] = intraperitoneal administration, rats, dose stated in each result

| SMILES | IC50 [1] [µM] | IC50 [2] [µM] | IC50 [3] [µM] | Test results (acute toxicity) ([4]; rat, in vivo, ip) | Test results (acute toxicity) [4, 5] |
| --- | --- | --- | --- | --- | --- |
| O=C(O)[C@H](Cc1c[nH]cn1)NCCN[C@@H](Cc1c[nH]cn1)C(=O)O [1a, L-His-C2-L-His] | 178 | > 595 | 2.08 | No toxicity observed upon administration of 400 mg/kg. |  |
| O=C(O)[C@H](Cc1ccccc1)NCCN[C@@H](Cc1c[nH]cn1)C(=O)O [2a, L-His-C2-L-Phe] | 185 | 24.3 |  |  | No toxicity observed upon administration of 100 mg/kg. |
| NCCCC[C@H](NCCN[C@@H](Cc1c[nH]cn1)C(=O)O)C(=O)O [3a, L-His-C2-L-Lys] | > 611 | > 611 |  |  | No toxicity observed upon administration of 400 mg/kg. |
| O=C(O)[C@H](Cc1c[nH]cn1)NCCN1CCC[C@H]1C(=O)O [4a, L-His-C2-L-Pro] | > 675 | > 675 |  |  | No toxicity observed upon administration of 400 mg/kg. |
| O=C(O)C[C@H](NCCN[C@@H](Cc1c[nH]cn1)C(=O)O)C(=O)O [5a, L-His-C2-L-Asp] | > 636 | > 636 | 1.59 | No toxicity observed upon administration of 400 mg/kg. |  |
| NCCC[C@H](NCCN[C@@H](Cc1c[nH]cn1)C(=O)O)C(=O)O [6a, L-His-C2-L-Orn] | 357 | > 638 |  |  |  |
| CCOC(=O)[C@H](Cc1ccccc1)NCCN[C@@H](Cc1c[nH]cn1)C(=O)O [7a, L-His-C2-L-Phe-OEt] | > 534 | 390 |  |  |  |

Reference: patent publication EP0175180A1, “Histargin-related compounds, a process for their preparation and their use as medicaments” (MICROBIAL CHEMISTRY RESEARCH FOUNDATION, priority 1984, dated 1986)
